≈ marks a conversion by molar mass, not a printed value.

For test [1], the system named is Trichophyton mentagrophytes KD-04. Kind of test: Antifungal activity evaluation test, MIC, Trichophyton mentagrophytes KD-04. In kind it is cell-based. As to conditions: KD04, 168 h, Sabouraud Dextrose Broth, 30° C., 7 days, visual, read-out: MIC T. men. KD-04.
Test [2] relates to Trichophyton mentagrophytes SM-110. In words: Antifungal activity evaluation test, MIC, Trichophyton mentagrophytes SM-110. As to conditions: SM110, 168 h, Sabouraud Dextrose Broth, 30° C., 7 days, visual, read-out: MIC T. men. SM-110. In kind it is cell-based.
In test [3] the test system is Trichophyton rubrum KD-101. In words: Antifungal activity evaluation test, MIC, Trichophyton rubrum KD-101. The format is cell-based. Conditions: KD101, 168 h, Sabouraud Dextrose Broth, 30° C., 7 days, visual, read-out: MIC T. rub. KD-101.
In test [4] the test system is Trichophyton rubrum KD-107. In words: Antifungal activity evaluation test, MIC, Trichophyton rubrum KD-107. In kind it is cell-based. Conditions: KD107, 168 h, Sabouraud Dextrose Broth, 30° C., 7 days, visual, read-out: MIC T. rub. KD-107.
In test [5] the test system is Malassezia furfur IFO-0656. In words: Antifungal activity evaluation test, MIC by urease activity, Malassezia furfur IFO-0656. The format is cell-based. As to conditions: IFO0656, 96 h, MU medium, 30° C., day 4 or 5, urease activity of 20% or below, read-out: MIC M. fur. IFO-0656.
In test [6] the test system is Trichophyton mentagrophytes KD-04. In words: Influence of keratin addition on anti-Trichophyton activity. The format is cell-based. As to conditions: Trichophyton mentagrophytes, KD04, 168 h, 30° C., 7 days. As for the experimental part:
The MIC increase rate by the addition of keratin to a medium was measured by the following procedure. • Test compound solution: A test compound was dissolved in dimethyl sulfoxide (DMSO) at a concentration of 5 mg/mL as a stock solution. Diluting this solution with DMSO, a 2-fold dilution series was prepared. • Test strain: Trichophyton mentagrophytes KD-04 was used. Preparation of Fungal Inoculum: the Above-Mentioned Strain was suspended in 0.05% Tween 80-containing physiological saline, and adjusted to a fungus concentration of 2×10^6 cells/mL using a counting chamber. […] The physiological saline was removed, and the mixture was further washed once with physiological saline (3 mL). The physiological saline was removed, and a test compound solution (10 μL) and Sabouraud Dextrose Broth (Difco) (500 μL) were added to keratin, and the mixture was sufficiently stirred. Then, inoculum (500 μL) of T. mentagrophytes KD-04 was added, and the mixture was cultured at 30° C. for 7 days. As a comparison control, an experiment similar to the above was performed under conditions free of keratin addition.

The test system of test [7] is TNCB-induced dermatitis. Kind of test: 2,4,6-Trinitrochlorobenzene (TNCB)-induced dermatitis model, ear edema. The format is in vivo, male BALB/c mouse. Conditions: test compound 1 w/v % (FK506 0.1 w/v %), 20 μL applied to auricle, 24 hours after induction. Here is the method:
(§1) The test compound was adjusted to 1 w/v % when in use with a solvent (acetone:olive oil=1:1, v/v)) and put to use. FK506 (control substance) was adjusted to 0.1 w/v % and used.
The fur on the abdomen of male BALB/c mouse was shaved with a hair clipper, and 100 μL of 7 w/v % TNCB sensitizing liquid (solvent was acetone:olive oil=4:1, v/v) was applied. Six days after the sensitization, the thickness of the right auricle was measured with a micrometer (pre-value). After the measurement, 10 μL of 1 w/v % TNCB challenge liquid (solvent was acetone:olive oil=1:9, v/v) was applied to the inside of the right auricle to induce ear edema. About 5 minutes after the application of the challenge liquid, 20 μL of the test compound was applied to the outside of the auricle.
After 24 hours from the induction of ear edema, the thickness of the right auricle was measured by a method similar to the pre-value (post-value). The difference between the post-value and the pre-value of ear edema by each test compound was determined, based on which the inhibition rate was calculated. The activity of each test compound was calculated with the ear edema inhibition rate of FK506 as 1.0 (ear edema inhibition rate of each test compound/ear edema inhibition rate of FK506).

For test [8], the system named is OVA-induced dermatitis. In words: Ovalbumin (OVA)-induced dermatitis model, ear edema. In kind it is in vivo, male ICR mouse. Set-up: key: ratio of compound's ear edema inhibition rate to FK506's (FK506 = 1.0). As to conditions: test compound 1 w/v % (FK506 0.1 w/v %), 20 μL applied to auricle, 24 hours after induction. Here is the method: as §1
Male ICR mouse was sensitized by the administration of 0.2 mL of OVA-hydroxide aluminum gel suspension to the abdominal cavity. After 14 days from the sensitization, the thickness of the right auricle was measured with a micrometer (pre-value). After the measurement, 20 μL of 0.5 μg/mL OVA challenge liquid (solvent was physiological saline) was subcutaneously administered to the inside of the auricle to induce ear edema. About 5 minutes after the administration of the challenge liquid, 20 μL of the test compound was applied to the outside of the auricle. After 24 hours from the induction of ear edema, the thickness of the right auricle was measured by a method similar to the pre-value (post-value). The difference between the post-value and the pre-value of ear edema by each test compound was determined, based on which the inhibition rate was calculated. The activity of each test compound was calculated with the ear edema inhibition rate of FK506 as 1.0 (ear edema inhibition rate of each test compound/ear edema inhibition rate of FK506).

As a reminder, the MIC is the smallest concentration in the dilution series that meets the test's criterion for growth inhibition. `CCCCSc1ccccc1C(=NN(C)C)n1ccnc1` [Compound No. 82, N′-[1-(2-butylthiophenyl)-1-imidazol-1-ylmethylidene]-N,N-dimethylhydrazine]: the MIC in test [1] came out at 0.05 µg/mL (≈ 0.165 µM); in test [2] it was 0.2 µg/mL (≈ 0.661 µM); in test [3], 0.1 µg/mL (≈ 0.331 µM); in test [4], 0.05 µg/mL (≈ 0.165 µM); in test [5], 0.78 µg/mL (≈ 2.58 µM); in test [6] (T. mentagrophytes KD-04, free of keratin addition, read-out: MIC SDB alone), 0.1 µg/mL (≈ 0.331 µM). Further, the MIC in test [6] (T. mentagrophytes KD-04, keratin 50 mg added, read-out: MIC SDB + keratin) was found to be 0.2 µg/mL. Moreover, in test [7], the “TNCB-induced dermatitis, with ear edema inhibition rate of FK506 as 1.0” value is on record as 0.6. Also, the “OVA-induced dermatitis, with ear edema inhibition rate of FK506 as 1.0” value in test [8] is on record as 1.1.

Source of the values: US8022072B2, “Azolylmethylidenehydrazine derivative and use thereof” (Kaken Pharmaceutical Co., Ltd., priority 2007, dated 2011).
